{"source": "patent US12622896B2", "about": "“Antiviral compounds, compositions and methods of use” (THE UNIVERSITY OF BRITISH COLUMBIA, priority 2019, dated 2026)", "key": {"[1]": {"tested_on": "clinical isolate (11845 INI)", "assay": "Anti-HIV assay against INI-resistant clinical isolate 11845", "details": "Human immunodeficiency virus 1, read-out: EC50 against 11845 clinical isolate", "experimental": "(§1) The anti-HIV activity of the compounds was measured by a human T-cell reporter assay based on CEM-GXR cells. These cells express GFP due to the activation of the tat-dependent promoter upon HIV-1 infection, and the level of infection was monitored using Flow cytometric analysis (Guavasoft 2.2™ software, Guava HT8, Millipore™). Antiviral activity was evaluated in an assay that measures the inhibition of HIV-1 spread in a co-culture of CEM-GXR cells containing one percent of HIV-1 infected (GFP positive) cells.\n(§2) This Maraviroc-resistant variant derived from a R5 strain of HIV-1BaL contains five mutations within the envelope V3 loop: A19T, L20F, T22A, E25D, and I26V."}, "[2]": {"tested_on": "Maraviroc-resistant variant of HIV-1BaL", "assay": "Anti-HIV assay against Maraviroc-resistant R5 strain", "details": "Human immunodeficiency virus 1, read-out: EC50 against Maraviroc-resistant HIV-1 strain", "experimental": "as §1, §2"}, "Huh7 cell line": {"tested_on": "Huh7 cell line", "details": "24 hr, Alamar Blue"}, "[3]": {"tested_on": "adenovirus hexon and E1A proteins", "assay": "Adenovirus protein expression, Western blot and immunofluorescence in A549 cells", "format": "cell-based", "details": "2.5 μM, Western blot", "protocol": "Protein lysates were analyzed by 10% Stain-Free gel (McDonald et al., 2008) and transferred to a polyvinylidene difluoride (PVDF) membranes using the Bio-Rad TurboBlot™ system according to the manufacturer's protocol. E1A and hexon blots were blocked at room temperature with 5% skim milk diluted in 0.05% Tween20 in ix PBS (PBS-T) for 1 h and then incubated with primary antibody overnight at 4° C. Following three PBS-T washes, the membrane is incubated with secondary antibody at room temperature for 1 h. For E1A analysis, blots were probed with polyclonal E1A primary antibody (Santa Cruz™, sc-430) and secondary anti-rabbit antibody conjugated to horseradish peroxidase (HRP, used a 1:5000 dilution in PBS-T). For hexon analysis, blots were probed with undiluted culture fluid from 2Hx-2 cells, which contain mouse anti-hexon antibodies, and secondary anti-mouse antibody conjugated to horseradish peroxidase (1:5000 dilution in PBS-T). For immunofluorescent detection of viral proteins, cells were fixed for 15 minutes with 4% paraformaldehyde, permeabilized with 0.1% Triton X-100 in PBS (PBT), then blocked with 5% bovine serum albumin (BSA) in PBT (BSA-PBT) at room temperature for 45 minutes. Cells were incubated with primary antibody at 37° C. for 45 minutes, washed three times with PBS, then incubated with secondary antibody for 45 minutes. […]"}, "in vitro": {"assay": "in vitro", "details": "human"}, "SRSF4": {"tested_on": "SRSF4", "assay": "SR protein abundance and phosphorylation by Western blot in HeLa rtTA HIVΔmls cells: SRSF4"}, "A549 cells": {"tested_on": "A549 cells", "assay": "A549 toxicity, trypan blue and Alamar Blue", "format": "cell-based", "details": "24 hr"}, "SRSF5": {"tested_on": "SRSF5", "assay": "SR protein abundance by Western blot in HeLa rtTA HIVΔmls cells: SRSF5", "details": "2.5 μM, 24 h, relative to DMSO", "experimental": "(§3) After 24 h of treatment, cells were harvested in 1×PBS, 2 mM EDTA and cell pellet resuspended in RIPA buffer. […] To assess effects on SR protein expression, cells were harvested in RIPA buffer containing phosphatase inhibitors and lysates fractionated on StainFree™ SDS-PAGE gels. Western blots were probed with one of the following antibodies: mouse α-SRSF1 (Life Technologies™, Cat: 32-4500), rabbit α-SRSF2 (BD Pharmingen™, Cat: 556363), mouse α-SRSF3 (Life Technologies™, Cat: 33-4200), rabbit α-SRSF4 (Novus Biologicals™, Cat: 2-04144), rabbit α-SRSF5 (MBL, RN082PW), rabbit α-SRSF6 (Novus Biologicals™, Cat: NBP2-04142), rabbit α-SRSF7 (Abcam™, Cat: ab137247), and rabbit α-SRSF9 (MBL, Cat: RN081PW), rabbit α-Tra2p (Abcam™, Cat: ab31353), and rabbit α-GAPDH (Sigma™, Cat: G9545). The following secondary antibodies were used: α-mouse, horseradish peroxidase (HRP)-conjugated IgG (Jackson Immunoresearch Laboratories™, Cat: 715-036-150) or α-rabbit, HRP-conjugated IgG (Jackson Immunoresearch Laboratories™, Cat: 711-036-152). […] Quantification of the relative intensity of the detected bands was done using ImageLab software and normalized to corresponding bands of the loading control (GAPDH, tubulin, or total protein).\n(§4) Briefly, cell lysates from HeLa rtTA HIVΔmls cells treated for 24 h with either DMSO or GPS491 were fractionated on SDS-PAGE gels and individual factors detected by Western blot."}, "HIV-1NL4-3": {"tested_on": "HIV-1NL4-3", "assay": "Preliminary anti-HIV screen: CEM-GXR reporter cells co-cultured with HIV-1NL4-3 infected cells, GFP by flow cytometry", "details": "within the C-2 substituted thiophene or thiazole series", "experimental": "as §1\nThe reporter CEM-GXR cells were infected by co-culture with one percent HIV-1NL4-3 infected (GFP positive) cells at the start of the assay (day 0). Individual compounds from the library was added in DMSO at varying concentrations to the culture in each microplate well immediately after the inoculation by infected cells. The final library compound concentration ranged from 1.25-10 μM and the final DMSO concentration was less than 0.1%. The percent of infected cells in the culture was determined by flow cytometry on day 3 using GFP expression as a readout."}, "229E coronavirus": {"tested_on": "229E coronavirus", "assay": "microbe, parasite or virus in culture", "format": "cell-based, coronavirus 229E", "details": "Huh7 cells"}, "SRSF9": {"tested_on": "SRSF9", "assay": "SR protein abundance by Western blot in HeLa rtTA HIVΔmls cells: SRSF9", "details": "2.5 μM, 24 h, relative to DMSO", "experimental": "as §3, §4"}, "[4]": {"tested_on": "Bcl-x transcript splicing", "assay": "SR-protein induced Bcl-x splicing, X2.13 minigene in 293 cells, RT-PCR", "format": "cell-based", "details": "10 μM"}, "PBMCs": {"tested_on": "PBMCs", "assay": "PBMC viability by ViaCount assay over 11 days", "format": "cell-based, human", "details": "up to 11 days"}, "adenovirus genome": {"tested_on": "adenovirus genome", "assay": "Adenovirus viral DNA replication by qPCR in A549 cells", "format": "cell-based", "details": "2.5 μM", "protocol": "For adenovirus DNA analysis, cells were seeded on 6 cm plates at a density of 1×10^6 cells per plate. The next day, cells were infected with HAdV-C5 (MOI 100) for 1 h, inoculum was removed and replaced with medium containing DMSO or GPS491 (2.5 μM). At the indicated times post-infection, cells were collected and washed in 1×PBS. Cells were lysed using 200 uL lysis buffer (10 mM Tris-HCl [pH 8.0], 75 mM NaCl, 0.1% SDS, 0.5% NP-40, 0.5% Tween 20, 0.5 mg/ml proteinase K) at 56° C. for 4 to 5 h and the mixture was boiled for 15 min. Samples were centrifuged at 13000×g and supernatant was collected. All samples from a given experiment were processed at the same time. Adenovirus DNA levels were determined by qPCR as previously detailed in Grosso F. et al. (2017). J Virol. 91(3):e01623-16.\nTo assess whether the altered pattern of E1A expression could be attributed to changes in viral RNA accumulation or splicing, RT-PCR analysis was performed. The E1A transcript is the first viral RNA generated upon adenovirus infection and can be processed into three different mRNAs by alternative splicing; designated 13S, 12S, and 9S as shown in FIG. 20(A). The abundance of the different E1A RNA isoforms fluctuates over the course of adenovirus infection; 13S and 12S predominating at early times p.i., while 9S is the major E1A RNA at later times. […]"}}}
{"smiles": "O=C(Nc1nc2ccc(C(F)(F)F)cc2s1)c1cnc(C(F)(F)F)s1", "note": "[12c, 2-(trifluoromethyl)-N-(6-(trifluoromethyl)benzo[d]thiazol-2-yl)thiazole-5-carboxamide]", "values": [{"measurement": "EC50", "setting": "[1]", "value": 203, "unit": "nM"}, {"measurement": "EC50", "setting": "[2]", "value": 216, "unit": "nM"}, {"measurement": "toxicity against the Huh7 cell line", "setting": "Huh7 cell line", "value": "minimal toxicity"}, {"measurement": "expression of the E1A protein", "setting": "[3]", "value": "delayed"}, {"measurement": "expression of the hexon protein", "setting": "[3]", "value": "inhibited"}, {"measurement": "CC50", "setting": "in vitro", "value": 10000, "unit": "nM"}, {"measurement": "reduction of SRSF4 abundance", "setting": "SRSF4; 2.5 μM, 24 h, relative to DMSO", "value": 20, "unit": "%"}, {"measurement": "SRSF4 phosphorylation (gel mobility, phosphatase treatment)", "setting": "SRSF4; GPS491 vs DMSO treated samples", "value": "increased phosphorylation"}, {"measurement": "toxicity against the A549 cell line", "setting": "A549 cells", "value": "minimal toxicity"}, {"measurement": "increase of SRSF5 level", "setting": "SRSF5", "value": 1.5, "unit": "fold"}, {"measurement": "anti-HIV activity, rank within the analogue series", "setting": "HIV-1NL4-3", "value": "most active"}, {"measurement": "effect on replication of 229E", "setting": "229E coronavirus", "value": "marked inhibition"}, {"measurement": "EC50", "setting": "229E coronavirus; Human coronavirus 229E, Huh-7, dose response", "value": "~250", "unit": "nM"}, {"measurement": "increase of SRSF9 level", "setting": "SRSF9", "value": 1.5, "unit": "fold"}, {"measurement": "generation of Bcl-xL splicing variant with SRSF1 or SRSF9", "setting": "[4]", "value": "did not have any impact"}, {"measurement": "Bcl-xS splice variant with SRSF10", "setting": "[4]; 24 hour", "value": "reduction"}, {"measurement": "cellular toxicity in PBMCs at 1 μM", "setting": "PBMCs; 1 μM", "value": "minimal toxicity"}, {"measurement": "cellular toxicity in PBMCs", "setting": "PBMCs; 0.1-10 μM range", "value": "some cellular toxicity"}, {"measurement": "viral DNA accumulation", "setting": "adenovirus genome", "value": "levels comparable to that observed immediately after virus addition"}]}
